Assay results reported in PubChem BioAssay AID330 (DTP/NCI, 2004).
“And” between values parts separate entries of the source, which are not always exact repeats. Identical values can stand only once. Toxic doses and inconclusive results are not listed.

Tested on: P388 leukemia ip, CD2F1 mice, survival T/C
Experiment: NCI In Vivo Anticancer Drug Screen. Data for tumor model P388 Leukemia (intraperitoneal) in CD2F1 (CDF1) mice
Conditions: endpoint: median survival time, higher = longer survival
In short: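 Mice carrying the transplanted tumor received test compound or vehicle. Survival was recorded in each group, and the value is the treated-group measurement divided by that of the vehicle-treated control group.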

[1] = dose: 12.5 mg/kg/injection, schedule: Q01DX005 (ip), vehicle: Klucel (hydroxypropylcellulose) (HPC)
[2] = dose: 25.0 mg/kg/injection, schedule: Q01DX005 (ip), vehicle: Klucel (hydroxypropylcellulose) (HPC)
[3] = dose: 50.0 mg/kg/injection, schedule: Q01DX005 (ip), vehicle: Klucel (hydroxypropylcellulose) (HPC)
[4] = dose: 6.25 mg/kg/injection, schedule: Q01DX009 (ip), vehicle: saline
[5] = dose: 100.0 mg/kg/injection, schedule: Q01DX009 (ip), vehicle: saline with Tween-80
[6] = dose: 200.0 mg/kg/injection, schedule: Q01DX009 (ip), vehicle: saline with Tween-80
[7] = dose: 50.0 mg/kg/injection, schedule: Q01DX009 (ip), vehicle: saline with Tween-80
[8] = dose: 50.0 mg/kg/injection, schedule: Q01DX009 (ip), vehicle: Klucel (hydroxypropylcellulose) (HPC)
[9] = dose: 100.0 mg/kg/injection, schedule: Q01DX009 (ip), vehicle: Klucel (hydroxypropylcellulose) (HPC)
[10] = dose: 200.0 mg/kg/injection, schedule: Q01DX009 (ip), vehicle: Klucel (hydroxypropylcellulose) (HPC)
[11] = dose: 100.0 mg/kg/injection, schedule: Q01DX005 (ip), vehicle: Klucel (hydroxypropylcellulose) (HPC)
[12] = dose: 200.0 mg/kg/injection, schedule: Q01DX005 (ip), vehicle: Klucel (hydroxypropylcellulose) (HPC)
[13] = dose: 100.0 mg/kg/injection, schedule: Q01DX001 (ip), vehicle: saline with Tween-80
[14] = dose: 200.0 mg/kg/injection, schedule: Q01DX001 (ip), vehicle: saline with Tween-80
[15] = dose: 400.0 mg/kg/injection, schedule: Q01DX001 (ip), vehicle: saline with Tween-80
[16] = dose: 100.0 mg/kg/injection, schedule: Q01DX001 (ip), vehicle: saline
[17] = dose: 200.0 mg/kg/injection, schedule: Q01DX001 (ip), vehicle: saline
[18] = dose: 400.0 mg/kg/injection, schedule: Q01DX001 (ip), vehicle: saline

CC(C)N1C(Nc2ccccn2)C(C)(C)C(C)(C)C1Nc1ccccn1 (stereo not given)
T/C (dose: 30.0 mg/kg/injection, schedule: Q01DX005 (ip), vehicle: Klucel (hydroxypropylcellulose) (HPC)): 121 % of control | T/C (dose: 240.0 mg/kg/injection, schedule: Q01DX005 (ip), vehicle: Klucel (hydroxypropylcellulose) (HPC)): 151 % of control and 164 % of control

C=C1C=CC1=O
T/C (dose: 0.63 mg/kg/injection, schedule: Q01DX009 (ip), vehicle: olive oil, sesame oil, peanut oil): 100 % of control | T/C (dose: 1.25 mg/kg/injection, schedule: Q01DX009 (ip), vehicle: olive oil, sesame oil, peanut oil): 100 % of control and 91 % of control | T/C (dose: 2.5 mg/kg/injection, schedule: Q01DX009 (ip), vehicle: olive oil, sesame oil, peanut oil): 100 % of control and 93 % of control | T/C (dose: 5.0 mg/kg/injection, schedule: Q01DX009 (ip), vehicle: olive oil, sesame oil, peanut oil): 100 % of control and 104 % of control | T/C (dose: 10.0 mg/kg/injection, schedule: Q01DX009 (ip), vehicle: olive oil, sesame oil, peanut oil): 99 % of control and 103 % of control

C/C(=N\Nc1ccc2ccccc2n1)c1ccccn1
T/C [1]: 107 % of control | T/C [2]: 106 % of control | T/C [3]: 114 % of control and 116 % of control

CC1(c2ccco2)NC(=O)NC1=O (stereo not given)
T/C (dose: 100.0 mg/kg/injection, schedule: Q04DX003 (ip), vehicle: saline with Tween-80): 90 % of control | T/C (dose: 200.0 mg/kg/injection, schedule: Q04DX003 (ip), vehicle: saline with Tween-80): 100 % of control | T/C (dose: 400.0 mg/kg/injection, schedule: Q04DX003 (ip), vehicle: saline with Tween-80): 90 % of control

NCC[Se][Se]CCN
T/C (dose: 1.56 mg/kg/injection, schedule: Q01DX009 (ip), vehicle: saline): 98 % of control | T/C (dose: 3.12 mg/kg/injection, schedule: Q01DX009 (ip), vehicle: saline): 98 % of control | T/C [4]: 104 % of control

Cc1ccc(S(=O)(=O)NC(=O)c2ccccc2)cc1
T/C [5]: 100 % of control | T/C [6]: 100 % of control | T/C (dose: 400.0 mg/kg/injection, schedule: Q01DX009 (ip), vehicle: saline with Tween-80): 91 % of control

Cc1nc2oc(=O)cc(C)c2c(=O)[nH]1
T/C (dose: 60.0 mg/kg/injection, schedule: Q01DX005 (ip), vehicle: Klucel (hydroxypropylcellulose) (HPC)): 91 % of control | T/C (dose: 120.0 mg/kg/injection, schedule: Q01DX005 (ip), vehicle: Klucel (hydroxypropylcellulose) (HPC)): 96 % of control

Cc1cc(NCCO)nc2c1ccc1ccccc12
T/C (dose: 25.0 mg/kg/injection, schedule: Q01DX009 (ip), vehicle: saline with Tween-80): 90 % of control | T/C [7]: 91 % of control | T/C [5]: 101 % of control

Oc1ccc(/C=C/c2cc(O)cc3c2C(c2cc(O)cc(O)c2)C(c2ccc(O)c(O)c2)O3)cc1 (stereo not given)
T/C (dose: 7.5 mg/kg/injection, schedule: Q01DX001 (ip), vehicle: Klucel + Tween-80): 94 % of control | T/C (dose: 15.0 mg/kg/injection, schedule: Q01DX001 (ip), vehicle: Klucel + Tween-80): 94 % of control | T/C (dose: 30.0 mg/kg/injection, schedule: Q01DX001 (ip), vehicle: Klucel + Tween-80): 103 % of control

CN1C(=O)C(n2[nH]c(=O)n(-c3ccc(Cl)cc3)c2=O)C(=O)N(C)C1=O
T/C [8]: 100 % of control | T/C [9]: 100 % of control | T/C [10]: 97 % of control

Nc1nc(-c2ccccc2N=NN2CCN(N=Nc3ccccc3-c3nc(N)c4ccccc4n3)CC2)nc2ccccc12
T/C (dose: 0.78 mg/kg/injection, schedule: Q01DX009 (ip), vehicle: Klucel (hydroxypropylcellulose) (HPC)): 104 % of control | T/C (dose: 1.56 mg/kg/injection, schedule: Q01DX009 (ip), vehicle: Klucel (hydroxypropylcellulose) (HPC)): 102 % of control | T/C (dose: 3.12 mg/kg/injection, schedule: Q01DX009 (ip), vehicle: Klucel (hydroxypropylcellulose) (HPC)): 95 % of control | T/C (dose: 6.25 mg/kg/injection, schedule: Q01DX009 (ip), vehicle: Klucel (hydroxypropylcellulose) (HPC)): 100 % of control

c1ccc(-c2[nH]nc3nccnc23)cc1
T/C [3]: 99 % of control | T/C [11]: 98 % of control | T/C [12]: 98 % of control

Cc1ccc(C)c2c1[nH]c1c(C)c3ccncc3c(C)c12
T/C [13]: 100 % of control | T/C [14]: 104 % of control | T/C [15]: 120 % of control

O=[N+]([O-])CC(OCCCCCCCCCCO)C(Cl)(Cl)Cl (stereo not given)
T/C [7]: 104 % of control | T/C [5]: 100 % of control | T/C [6]: 100 % of control

Cc1cccc(-n2c(-c3ccc([N+](=O)[O-])cc3)csc2=NC(=O)c2cccc([N+](=O)[O-])c2)c1C
T/C [7]: 91 % of control | T/C [5]: 87 % of control | T/C [6]: 87 % of control

Cc1cccc(C)c1OCc1nnc(SCC(=O)O)n1-c1c(C)cccc1C
T/C [3]: 102 % of control | T/C [11]: 99 % of control | T/C [12]: 93 % of control

CCCCC/C(=C/C=C/c1ccc(Cl)cc1)CN(C)C
T/C [8]: 111 % of control | T/C [9]: 110 % of control

COc1ccc(C(O)(c2ccccc2)c2ccccc2)c(OC)c1
T/C [8]: 98 % of control | T/C [9]: 93 % of control | T/C [10]: 95 % of control

CC(=O)Nc1nc(Cl)c2ncn(C3CC(OC(=O)c4ccc(C)cc4)C(COC(=O)c4ccc(C)cc4)O3)c2n1 (stereo not given)
T/C [1]: 97 % of control | T/C [2]: 90 % of control | T/C [3]: 97 % of control and 100 % of control | T/C [11]: 95 % of control and 98 % of control | T/C [12]: 97 % of control and 103 % of control

O=C1c2ccccc2C(=C(c2ccccc2)c2ccccc2)c2ccccc21
T/C [3]: 89 % of control | T/C [11]: 88 % of control | T/C [12]: 86 % of control

OCC1OC(n2cnc3c(NO)ncnc32)CC1O (stereo not given)
T/C (dose: 12.5 mg/kg/injection, schedule: Q01DX009 (ip), vehicle: Klucel (hydroxypropylcellulose) (HPC)): 100 % of control | T/C (dose: 25.0 mg/kg/injection, schedule: Q01DX009 (ip), vehicle: Klucel (hydroxypropylcellulose) (HPC)): 112 % of control | T/C [8]: 100 % of control | T/C [9]: 100 % of control

CC(=O)CC(c1ccc(Cl)cc1)C(C#N)c1ccccc1 (stereo not given)
T/C [8]: 89 % of control | T/C [9]: 91 % of control | T/C [10]: 86 % of control

O=C(CCCl)Nc1ccc(C(=O)CCc2cccc(NC(=O)CCCl)c2)cc1
T/C (dose: 60.0 mg/kg/injection, schedule: Q01DX005 (ip), vehicle: saline with Tween-80): 100 % of control | T/C (dose: 120.0 mg/kg/injection, schedule: Q01DX005 (ip), vehicle: saline with Tween-80): 97 % of control | T/C (dose: 240.0 mg/kg/injection, schedule: Q01DX005 (ip), vehicle: saline with Tween-80): 89 % of control

Nc1nc2c(cnn2C2CCCO2)c(=O)[nH]1 (stereo not given)
T/C [13]: 100 % of control | T/C [14]: 106 % of control | T/C [15]: 96 % of control

C=C1CC2(CC3C4CC3CC2C4)OC1=O (stereo not given)
T/C [16]: 98 % of control | T/C [17]: 99 % of control | T/C [18]: 100 % of control

O=C(NC1CCOC1=O)c1ccc(N=C=S)cc1 (stereo not given)
T/C (dose: 25.0 mg/kg/injection, schedule: Q04DX003 (ip), vehicle: Klucel (hydroxypropylcellulose) (HPC)): 104 % of control | T/C (dose: 50.0 mg/kg/injection, schedule: Q04DX003 (ip), vehicle: Klucel (hydroxypropylcellulose) (HPC)): 107 % of control | T/C (dose: 100.0 mg/kg/injection, schedule: Q04DX003 (ip), vehicle: Klucel (hydroxypropylcellulose) (HPC)): 101 % of control and 106 % of control

CS(=O)(=O)c1noc(N)n1
T/C (dose: 50.0 mg/kg/injection, schedule: Q01DX005 (ip), vehicle: saline): 115 % of control | T/C (dose: 100.0 mg/kg/injection, schedule: Q01DX005 (ip), vehicle: saline): 113 % of control | T/C (dose: 200.0 mg/kg/injection, schedule: Q01DX005 (ip), vehicle: saline): 115 % of control

COC1CC(N)C2OC(c3ccccc3)OCC2O1 (stereo not given)
T/C [7]: 99 % of control | T/C [5]: 101 % of control | T/C [6]: 109 % of control

CCOc1ccc(Nc2nc(C(Cl)(Cl)Cl)cc(C(Cl)(Cl)Cl)n2)cc1CN(CC)CC
T/C (dose: 6.25 mg/kg/injection, schedule: Q01DX009 (ip), vehicle: saline sonified): 100 % of control | T/C (dose: 12.5 mg/kg/injection, schedule: Q01DX009 (ip), vehicle: saline sonified): 100 % of control | T/C (dose: 25.0 mg/kg/injection, schedule: Q01DX009 (ip), vehicle: saline sonified): 100 % of control

CCN1c2ccccc2C(Cl)(c2ccc(N(C)C)cc2)c2ccccc21
T/C [4]: 116 % of control | T/C (dose: 12.5 mg/kg/injection, schedule: Q01DX009 (ip), vehicle: saline): 120 % of control

O=C(NC(=O)c1cccc2ccccc12)NC(=S)c1cccc2ccccc12
T/C [16]: 103 % of control and 96 % of control | T/C [17]: 109 % of control and 95 % of control | T/C [18]: 101 % of control and 87 % of control
